Reference: patent publication US10662205B2, “Cyclic boronic acid ester derivatives and therapeutic uses thereof” (priority 2014, dated 2020)

Tests used:
PAM1032/KPC-2 [1] = assay: Biapenem MIC; format: cell-based; details: Pseudomonas aeruginosa; PAM1032 with KPC-2 plasmid
Description: (§1) Efflux of BLIs from Pseudomonas aeruginosa by the MexAB-OprM efflux pump was also evaluated. The plasmid expressing the gene encoding KPC-2 was introduced into two strains of P. aeruginosa, PAM1032 and PAM1154 that overexpressed or lacked MexAB-OprM, respectively. Due to expression of KPC-2 both strains became resistant to biapenem. […] Potency of BLIs to potentiate biapenem in these strains was determined. […] The ratio of MPC64 values for each BLI in PAM1032/KPC-2 (efflux proficient) and PAM1154/KPC-2 (efflux deficient) was determined to generate the Efflux Index (EI).

PAM1154/KPC-2 [2] = assay: Biapenem MIC; format: cell-based; details: Pseudomonas aeruginosa; PAM1154 with KPC-2 plasmid
Description: as §1

KP1004 (KPC-2) [3] = assay: Biapenem MIC of test strain; details: read-out: Biapenem MIC
KP1086 (OXA-48) [4] = assay: Biapenem MIC of test strain; details: read-out: Biapenem MIC
KP1005 (CTX-M-14) [5] = assay: Tigemonam MIC of test strain
KP1009 (CTX-M-15) [6] = assay: Tigemonam MIC of test strain
ec308 (SHV-5) [7] = assay: Tigemonam MIC of test strain
KP1010 (SHV-12) [8] = assay: Tigemonam MIC of test strain
ec302 (TEM-10) [9] = assay: Tigemonam MIC of test strain
ECL1002 [10] = assay: Tigemonam MIC of test strain
EC1010 (CMY-6) [11] = assay: Tigemonam MIC of test strain
KP1005 (CTX-M-14) [12] = assay: organism not typed; format: cell-based; details: read-out: Aztreonam MIC
KP1009 (CTX-M-15) [13] = assay: organism not typed; format: cell-based; details: read-out: Aztreonam MIC
ec308 (SHV-5) [14] = assay: Aztreonam MIC of test strain; format: cell-based
KP1010 (SHV-12) [15] = assay: Aztreonam MIC of test strain; format: cell-based
ec302 (TEM-10) [16] = assay: Aztreonam MIC of test strain; format: cell-based
KP1004 (KPC-2) [17] = assay: organism not typed; format: cell-based; details: read-out: Aztreonam MIC
EC1010 (CMY-6) [18] = assay: Aztreonam MIC of test strain; format: cell-based
KP1005 (CTX-M-14) [19] = assay: Aztreonam potentiation (MPC@4); format: cell-based; details: aztreonam 4 μg/mL
KP1009 (CTX-M-15) [20] = assay: Aztreonam potentiation (MPC@4); format: cell-based; details: aztreonam 4 μg/mL
ec308 (SHV-5) [21] = assay: Aztreonam potentiation (MPC@4); format: cell-based; details: aztreonam 4 μg/mL
KP1010 (SHV-12) [22] = assay: Aztreonam potentiation (MPC@4); format: cell-based; details: aztreonam 4 μg/mL
ec302 (TEM-10) [23] = assay: Aztreonam potentiation (MPC@4); format: cell-based; details: aztreonam 4 μg/mL
KP1004 (KPC-2) [24] = assay: Aztreonam potentiation (MPC@4); format: cell-based; details: aztreonam 4 μg/mL
ECL1002 [25] = assay: Aztreonam potentiation (MPC@4); format: cell-based; details: aztreonam 4 μg/mL
EC1010 (CMY-6) [26] = assay: Aztreonam potentiation (MPC@4); format: cell-based; details: aztreonam 4 μg/mL
KP1005 (CTX-M-14) [27] = assay: Tigemonam potentiation (MPC@4); format: cell-based; details: tigemonam 4 μg/mL
KP1009 (CTX-M-15) [28] = assay: Tigemonam potentiation (MPC@4); format: cell-based
ec308 (SHV-5) [29] = assay: Tigemonam potentiation (MPC@4); format: cell-based; details: tigemonam 4 μg/mL
KP1010 (SHV-12) [30] = assay: Tigemonam potentiation (MPC@4); format: cell-based
ec302 (TEM-10) [31] = assay: Tigemonam potentiation (MPC@4); format: cell-based; details: tigemonam 4 μg/mL
ECL1002 [32] = assay: Tigemonam potentiation (MPC@4); format: cell-based; details: tigemonam 4 μg/mL
EC1010 (CMY-6) [33] = assay: Tigemonam potentiation (MPC@4); format: cell-based; details: tigemonam 4 μg/mL; EC1010, CMY-6
CTX-M-14 = CTX-M-14 (Escherichia coli, UniProt Q9L5C7); assay: Inhibition of nitrocefin cleavage by purified enzyme (Ki); format: biochemical; details: nitrocefin reporter substrate; 10 min preincubation; read-out: Ki CTX-M-14, NCF
Chain of CTX-M-14 (Q9L5C7 29-291): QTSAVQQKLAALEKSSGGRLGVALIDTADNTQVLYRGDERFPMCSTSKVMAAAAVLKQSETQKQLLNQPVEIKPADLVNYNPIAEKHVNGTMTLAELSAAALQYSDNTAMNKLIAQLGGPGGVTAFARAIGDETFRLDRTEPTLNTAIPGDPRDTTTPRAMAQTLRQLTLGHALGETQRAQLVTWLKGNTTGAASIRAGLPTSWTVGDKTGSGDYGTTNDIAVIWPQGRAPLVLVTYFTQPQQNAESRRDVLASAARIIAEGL
Description: (§2) Ki values of inhibition of purified class A, C and D enzymes were determined spectrophotometrically using nitrocefin as reporter substrate. Purified enzymes were mixed with various concentrations of inhibitors in reaction buffer and incubated for 10 min at room temperature. Nitrocefin was added and substrate cleavage profiles were recorded at 490 nm every 10 sec for 10 min.

SHV-12 = SHV-12 (Klebsiella pneumoniae, UniProt P0AD64, E235K/G234S/L31Q); assay: as above; format: biochemical
Chain of SHV-12 (P0AD64 22-286 L31Q/G234S/E235K): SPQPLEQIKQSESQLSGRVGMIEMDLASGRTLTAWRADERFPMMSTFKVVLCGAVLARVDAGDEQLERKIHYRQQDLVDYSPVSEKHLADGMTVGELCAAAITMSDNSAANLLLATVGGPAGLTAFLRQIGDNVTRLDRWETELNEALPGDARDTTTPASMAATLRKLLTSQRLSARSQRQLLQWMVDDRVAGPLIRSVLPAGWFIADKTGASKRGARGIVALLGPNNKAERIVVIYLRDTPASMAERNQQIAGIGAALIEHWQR
Description: as §2

CMY-2 = CMY-2 (Klebsiella pneumoniae, UniProt Q48434); assay: as above; format: biochemical; details: nitrocefin reporter substrate; 10 min preincubation; read-out: Ki CMY-2, NCF
Chain of CMY-2 (Q48434 21-381, species assumed): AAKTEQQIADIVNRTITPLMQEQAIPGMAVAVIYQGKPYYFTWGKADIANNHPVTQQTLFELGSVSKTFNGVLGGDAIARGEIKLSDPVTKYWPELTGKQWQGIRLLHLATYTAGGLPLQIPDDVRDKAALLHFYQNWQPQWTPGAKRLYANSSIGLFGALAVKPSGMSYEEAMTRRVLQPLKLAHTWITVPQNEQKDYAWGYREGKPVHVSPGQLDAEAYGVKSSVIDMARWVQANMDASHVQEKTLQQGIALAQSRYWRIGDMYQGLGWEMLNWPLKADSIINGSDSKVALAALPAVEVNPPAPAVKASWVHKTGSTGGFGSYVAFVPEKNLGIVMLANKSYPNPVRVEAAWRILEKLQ
Description: as §2, with “min. These experiments confirmed that the described compounds are inhibitors with a broad-spectrum of activity towards various β-lactamases.” for “min.”

KPC-2 = KPC-2 (Klebsiella pneumoniae, UniProt Q9F663); assay: as above; format: biochemical; details: nitrocefin reporter substrate; 10 min preincubation; read-out: Ki KPC-2, NCF
Chain of KPC-2 (Q9F663 25-293, looked up, species assumed): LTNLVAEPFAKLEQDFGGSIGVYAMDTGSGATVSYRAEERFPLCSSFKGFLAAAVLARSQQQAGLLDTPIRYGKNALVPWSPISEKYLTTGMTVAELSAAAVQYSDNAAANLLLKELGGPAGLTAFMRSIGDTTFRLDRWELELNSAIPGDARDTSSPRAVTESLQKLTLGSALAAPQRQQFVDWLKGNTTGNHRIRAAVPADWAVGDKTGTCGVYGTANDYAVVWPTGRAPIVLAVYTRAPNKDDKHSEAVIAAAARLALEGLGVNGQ
Description: as §2, with “min. These experiments confirmed that the described compounds are inhibitors with a broad-spectrum of activity towards various β-lactamases.” for “min.”

OXA-48 = OXA-48 (Klebsiella pneumoniae, UniProt Q6XEC0); assay: as above; format: biochemical; details: nitrocefin reporter substrate; 10 min preincubation; read-out: Ki OXA-48, NCF
Chain of OXA-48 (Q6XEC0 23-265, looked up, species assumed): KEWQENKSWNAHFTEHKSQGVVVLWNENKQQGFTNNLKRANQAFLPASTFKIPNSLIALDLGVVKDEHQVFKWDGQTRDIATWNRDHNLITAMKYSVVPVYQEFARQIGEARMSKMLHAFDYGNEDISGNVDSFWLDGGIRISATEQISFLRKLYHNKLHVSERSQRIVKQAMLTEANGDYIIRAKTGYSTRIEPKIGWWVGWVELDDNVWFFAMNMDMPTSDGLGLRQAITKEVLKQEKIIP
Description: as §2, with “min. These experiments confirmed that the described compounds are inhibitors with a broad-spectrum of activity towards various β-lactamases.” for “min.”

P99 = P99 (Enterobacter cloacae, UniProt P05364); assay: biochemical; details: nitrocefin reporter substrate; 10 min preincubation; read-out: Ki P99, NCF
Chain of P99 (P05364 21-381): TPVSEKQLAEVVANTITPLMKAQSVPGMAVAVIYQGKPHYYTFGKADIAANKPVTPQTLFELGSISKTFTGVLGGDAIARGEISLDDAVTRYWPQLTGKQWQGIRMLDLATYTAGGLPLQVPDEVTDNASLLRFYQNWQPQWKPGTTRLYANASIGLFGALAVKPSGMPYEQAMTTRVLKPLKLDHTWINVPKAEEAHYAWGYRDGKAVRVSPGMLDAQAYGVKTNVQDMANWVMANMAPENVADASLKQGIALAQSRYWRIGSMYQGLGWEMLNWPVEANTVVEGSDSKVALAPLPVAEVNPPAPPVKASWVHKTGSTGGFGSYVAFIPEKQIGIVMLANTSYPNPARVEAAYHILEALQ
Description: as §2

PAM1032/KPC-2 [34] = assay: Biapenem potentiation MPC64, efflux proficient strain; format: cell-based, Pseudomonas aeruginosa; parameters: unit not given here; details: efflux proficient (MexAB-OprM overexpressed); decrease biapenem MIC 64-fold, 32 to 0.5 μg/ml
Description: as §1

PAM1154/KPC-2 [35] = assay: Biapenem potentiation MPC64, efflux deficient strain; format: cell-based, Pseudomonas aeruginosa; parameters: unit not given here; details: efflux deficient (lacks MexAB-OprM); decrease biapenem MIC 64-fold, 32 to 0.5 μg/ml
Description: as §1

Oral pharmacokinetics = format: in vivo; details: rat, plasma; rats, single oral dose 30 mg/kg, n=3; read-out: Range of % Oral Bioavailability
Description: Several compounds were tested for their oral pharmacokinetics. Rats (n=3 per compound) were administered a single oral dose. Oral doses were administered as a bolus. Plasma (˜0.3 mL) samples were collected from each rat at designated time points up to 24 hours. Blood samples were centrifuged within 5 min of collection at 12000 g for 5 min to obtain plasma. The plasma samples were stored at −80° C. until analyzed. Data were analyzed using WinNonlin.

KP1004 (KPC-2) [36] = assay: Biapenem potentiation (MPC@1); details: biapenem 1 μg/mL
KP1086 (OXA-48) [37] = assay: Biapenem potentiation (MPC@1); details: biapenem 1 μg/mL

C[C@@H](O)[C@H]1C(=O)N2C(C(=O)[O-])=C(SC3Cn4cnc[n+]4C3)[C@H](C)[C@H]12 (some centres unmarked) [Biapenem]
MIC (PAM1032/KPC-2 [1]): 32 µg/mL
MIC (PAM1154/KPC-2 [2]): 32 µg/mL
MIC (KP1004 (KPC-2) [3]): 32 µg/mL
MIC (KP1086 (OXA-48) [4]): 16 µg/mL

CC1(C)[C@H](NC(=O)/C(=N\OCC(=O)O)c2csc(N)n2)C(=O)N1OS(=O)(=O)O [Tigemonam]
Tigemonam MIC (KP1005 (CTX-M-14) [5]): >64 µg/mL
Tigemonam MIC (KP1009 (CTX-M-15) [6]): >64 µg/mL
Tigemonam MIC (ec308 (SHV-5) [7]): >64 µg/mL
Tigemonam MIC (KP1010 (SHV-12) [8]): >64 µg/mL
Tigemonam MIC (ec302 (TEM-10) [9]): >64 µg/mL
Tigemonam MIC (ECL1002 [10]): 32 µg/mL
Tigemonam MIC (EC1010 (CMY-6) [11]): 16 µg/mL

C[C@H]1[C@H](NC(=O)/C(=N\OC(C)(C)C(=O)O)c2csc(N)n2)C(=O)N1S(=O)(=O)O [Aztreonam]
MIC (KP1005 (CTX-M-14) [12]): > 128 µg/mL
MIC (KP1009 (CTX-M-15) [13]): > 128 µg/mL
MIC (ec308 (SHV-5) [14]): > 128 µg/mL
MIC (KP1010 (SHV-12) [15]): 64 µg/mL
MIC (ec302 (TEM-10) [16]): 128 µg/mL
MIC (KP1004 (KPC-2) [17]): > 128 µg/mL
MIC (EC1010 (CMY-6) [18]): > 128 µg/mL

Nc1nnc(SCC(=O)N[C@H]2CC=C[C@@H]3CC(=O)OB2O3)s1 [Compound 6, 2-(5-AMINO-1,3,4-THIADIAZOL-2-YLTHIO)-N-((2R,6S)-8-OXO-9,10-DIOXA-1-BORABICYCLO[4.3.1]DEC-4-EN-2-YL)ACETAMIDE]
MPC@4 aztreonam potentiation (KP1005 (CTX-M-14) [19]): X (X = MPC@4 ≤ 5 μg/mL)
MPC@4 aztreonam potentiation (KP1009 (CTX-M-15) [20]): X (X = MPC@4 ≤ 5 μg/mL)
MPC@4 aztreonam potentiation (ec308 (SHV-5) [21]): X (X = MPC@4 ≤ 5 μg/mL)
MPC@4 aztreonam potentiation (KP1010 (SHV-12) [22]): X (X = MPC@4 ≤ 5 μg/mL)
MPC@4 aztreonam potentiation (ec302 (TEM-10) [23]): X (X = MPC@4 ≤ 5 μg/mL)
MPC@4 aztreonam potentiation (KP1004 (KPC-2) [24]): X (X = MPC@4 ≤ 5 μg/mL)
MPC@4 aztreonam potentiation (ECL1002 [25]): X (X = MPC@4 ≤ 5 μg/mL)
MPC@4 aztreonam potentiation (EC1010 (CMY-6) [26]): X (X = MPC@4 ≤ 5 μg/mL)
MPC@4 tigemonam potentiation (KP1005 (CTX-M-14) [27]): X (X = MPC@4 ≤ 5 μg/mL)
MPC@4 tigemonam potentiation (KP1009 (CTX-M-15) [28]): X (key: X = MPC@4 ≤ 5 μg/mL; Y = 5 μg/mL < MPC@4 ≤ 20 μg/mL; Z = MPC@4 > 20 μg/mL)
MPC@4 tigemonam potentiation (ec308 (SHV-5) [29]): X (X = MPC@4 ≤ 5 μg/mL)
MPC@4 tigemonam potentiation (KP1010 (SHV-12) [30]): X (key: X = MPC@4 ≤ 5 μg/mL; Y = 5 μg/mL < MPC@4 ≤ 20 μg/mL; Z = MPC@4 > 20 μg/mL)
MPC@4 tigemonam potentiation (ec302 (TEM-10) [31]): Y (Y = 5 μg/mL < MPC@4 ≤ 20 μg/mL)
MPC@4 tigemonam potentiation (ECL1002 [32]): X (X = MPC@4 ≤ 5 μg/mL)
MPC@4 tigemonam potentiation (EC1010 (CMY-6) [33]): X (X = MPC@4 ≤ 5 μg/mL)
Ki (CTX-M-14): < 100 nM
Ki (SHV-12): < 100 nM
Ki (CMY-2): < 100 nM
Ki (KPC-2): 100 to 1000 nM
Ki (OXA-48): 100 to 1000 nM
Ki (P99): < 100 nM
PAM1032/KPC-2 Biapenem MPC64 (PAM1032/KPC-2 [34]): 40
PAM1154/KPC-2 Biapenem MPC64 (PAM1154/KPC-2 [35]): 5
bioavailability (Oral pharmacokinetics): 2 to 4%
MPC@1 biapenem potentiation (KP1004 (KPC-2) [36]): X (X = MPC@1 ≤ 5 μg/mL)
MPC@1 biapenem potentiation (KP1086 (OXA-48) [37]): Z (Z = MPC@1 > 20 μg/mL)
